This note sets out measurements from patent publication US4202802A, “Peptides related to somatostatin” (Eli Lilly and Company, priority 1978, dated 1980).

Several values for one entry are separate records, joined by “and”; a condition that tells them apart may be missing. Equal entries are not always repeated. Bridge positions count the residues as written; N and C are the ends. Square brackets hold non-standard residues; d marks the D form. Peptide text beside a SMILES is read from it.

Assay [1] deals with growth hormone (GH) secretion. Put plainly: Growth Hormone Inhibition In Rats (pentobarbital-stimulated GH secretion, serum GH by radioimmunoassay). The assay is classed as in vivo. The conditions noted are these: male rats, peptide S.C.; for Serum Growth Hormone Conc. Mean ± SEM: pentobarbital 4 mg/rat I.P. The method, then:
This test is a modification of the method of P. Brazeau et al. Endocrinology, 94, 184 (1974). Male rats (weighing 100-110 g.) are divided into three groups of eight rats each. Each rat is administered sodium pentobarbital at a dose of 4 mg/rat (I.P.) to stimulate growth hormone (GH) secretion. Simultaneously, one group of rats receives the test compound (S.C.); the second group receives somatostatin (S.C.); and the third group (control) receives saline (S.C.). Twenty-minutes later, the animals are decapitated and blood samples are collected. The serum concentration of growth hormone (GH) is determined by radioimmunoassay. The mean GH concentration (±standard error of the mean) is calculated for each group. The percent inhibition of GH release (as compared to saline controls) is then calculated for the test compound and for somatostatin. When tested as above-described, the peptides of Example 4, 7, 10, and 14, representative of the peptides of Formula III, gave the results set forth below in Table I: […]

Another assay has as its system serum glucagon. Kind of assay: Glucagon Inhibition In Dogs (I.V. infusion of test compound with L-alanine infusion, serum glucagon by radioimmunoassay). The conditions noted are these: for inhibition of glucagon concentration: fasted dog, I.V. infusion, doses: Example 4 0.147, Example 7 0.182, Example 10 0.247 μg/kg/min, Example 14 0.092, 0.126, 0.128, 0.198 μg/kg/min and 0.305 mg/kg/min. The class given is in vivo, dog. As for the experimental part:
(§1) A normal dog is fasted overnight. An intravenous (I.V.) infusion of the test compound (dissolved in saline) is begun. Thirty minutes thereafter an additional infusion of L-alanine (dissolved in saline) is begun and is continued for a total of 15 minutes so that a total dose of about 1 mmole of L-alanine per kg. body weight is given. Infusion of the test compound is continued for an additional 15 minute period.
(§2) Blood samples are taken periodically before (at -20, -10 and -1 minutes) and after (5, 10, 15, 30, 35, 40, 45, 50, 60, 90, 120 and 150 minutes) the start of the infusion of the test compound. The serum insulin and serum glucagon concentrations in the blood are determined by radioimmunoassay. A plot is made of the glucagon and insulin concentrations versus time. The plot obtained from the test compound is compared to plots obtained from somatostatin and saline (controls) in similar experiments.
(§3) Infusion of L-alanine (in the absence of somatostatin or active test compound) causes an abrupt increase in serum insulin and glucagon concentrations. The concentrations return to basal levels after the L-alanine infusion is terminated. Infusion of somalostatin (alone) causes a decrease in basal serum concentrations of insulin and glucagon.

The next assay relates to serum insulin. Kind of assay: Insulin Inhibition In Dogs (I.V. infusion of test compound with L-alanine infusion, serum insulin by radioimmunoassay). The assay is classed as in vivo, dog. The settings on record: for inhibition of insulin concentration: fasted dog, I.V. infusion, doses: Example 4 0.147, Example 7 0.182, Example 10 0.247 μg/kg/min, Example 14 0.092, 0.126, 0.128, 0.198 μg/kg/min and 0.305 mg/kg/min. The method, then: as §1, §2, §3

Where [2] appears, read: Dose (mg/kg) 2, 20 min after dosing.
[3] abbreviates: Dose (mg/kg) 50, 20 min after dosing.
[4] abbreviates: dog, in the presence of L-alanine.
Setting [5] is: dog, infusion alone (no L-alanine).

As for `CC(C)[C@@H](N)C(=O)NCC(=O)N[C@H]1CSSC[C@@H](C(=O)O)NC(=O)[C@H](CO)NC(=O)[C@H]([C@@H](C)O)NC(=O)[C@@H](Cc2ccccc2)NC(=O)[C@H]([C@@H](C)O)NC(=O)[C@H](CCCCN)NC(=O)[C@@H](Cc2c[nH]c3ccccc23)NC(=O)[C@H](Cc2ccccc2)NC(=O)[C@@H](Cc2ccccc2)NC(=O)[C@H](C)NC(=O)[C@H](CCCCN)NC1=O` [Example 4, D-Valyl-L-glycyl-L-cysteinyl-L-lysyl-L-alanyl-D-phenylalanyl-L-phenylalanyl-D-tryptophyl-L-lysyl-L-threonyl-D-phenyl-alanyl-L-threonyl-L-seryl-L-cysteine cyclic (3->14) disulfide] (H-[dV]GCKA[dF]F[dW]KT[dF]TSC-OH; disulfide 3-14), the values for the Serum Growth Hormone Conc. Mean ± SEM in assay [1] (setting [2]) and in assay [1] (setting [3]) were 72.1 ± 27.3 ng/mL and 31.9 ± 16.6 ng/mL, respectively. Further, the “% Inhibition of GH release (as compared to saline controls)” value (shortened to “% Inhibition of GH release”) in assay [1] (Dose (mg/kg) 2) turned out to be 27.9%; in assay [1] (Dose (mg/kg) 50), 68.1%. The “inhibition of glucagon concentration” value in the assay with serum glucagon is recorded as “no significant inhibition”. Moreover, the “inhibition of insulin concentration” value with serum insulin was “no significant inhibition”.
Turning to `CC(C)[C@@H](N)C(=O)NCC(=O)N[C@H]1CSSC[C@@H](C(=O)O)NC(=O)[C@H](CO)NC(=O)[C@H]([C@@H](C)O)NC(=O)[C@@H](Cc2ccccc2)NC(=O)[C@H]([C@@H](C)O)NC(=O)[C@H](CCCCN)NC(=O)[C@@H](Cc2c[nH]c3ccccc23)NC(=O)[C@H](Cc2ccccc2)NC(=O)[C@H](Cc2ccccc2)NC(=O)[C@H](C)NC(=O)[C@H](CCCCN)NC1=O` [Example 7, D-Valyl-L-glycyl-L-cysteinyl-L-lysyl-L-alanyl-L-phenylalanyl-L-phenylalanyl-D-tryptophyl-L-lysyl-L-threonyl-D-phenyl-alanyl-L-threonyl-L-seryl-L-cysteine cyclic (3->14) disulfide] (H-[dV]GCKAFF[dW]KT[dF]TSC-OH; disulfide 3-14), the results for the Serum Growth Hormone Conc. Mean ± SEM in assay [1] (setting [2]) and in assay [1] (setting [3]) were 94.7 ± 22 ng/mL and 38.7 ng/mL, respectively. For the same compound, the figures for the “% Inhibition of GH release” value in assay [1] (Dose (mg/kg) 2) and in assay [1] (Dose (mg/kg) 50) were 45.9% and 77.5%, respectively. Besides, the “inhibition of glucagon concentration” value in the assay with serum glucagon is “no significant inhibition”. Moreover, the “inhibition of insulin concentration” value with serum insulin is recorded as “no significant inhibition”.
Consider `CC(C)C[C@@H]1NC(=O)[C@H](C)NC(=O)[C@H](CCCCN)NC(=O)[C@@H](NC(=O)CNC(=O)[C@H](N)C(C)C)CSSC[C@@H](C(=O)O)NC(=O)[C@H](CO)NC(=O)[C@H]([C@@H](C)O)NC(=O)[C@@H](Cc2ccccc2)NC(=O)[C@H]([C@@H](C)O)NC(=O)[C@H](CCCCN)NC(=O)[C@@H](Cc2c[nH]c3ccccc23)NC(=O)[C@H](Cc2ccccc2)NC1=O` [Example 10, D-Valyl-L-glycyl-L-cysteinyl-L-lysyl-L-alanyl-L-leucyl-L-phenylalanyl-D-tryptophyl-L-lysyl-L-threonyl-D-phenylalanyl-L-threonyl-L-seryl-L-cysteine cyclic (3->14) disulfide] (H-[dV]GCKALF[dW]KT[dF]TSC-OH; disulfide 3-14), for which the Serum Growth Hormone Conc. Mean ± SEM in assay [1] (setting [2]) is 82.8 ± 19.6 ng/mL; in assay [1] (setting [3]) it was 93.5 ± 22.6 ng/mL. The entries for the “% Inhibition of GH release” value in assay [1] (Dose (mg/kg) 2) and in assay [1] (Dose (mg/kg) 50) were 37.3% and 29.3%, respectively. Also, the “inhibition of glucagon concentration” value in the assay with serum glucagon is listed as “no significant inhibition”. Besides, the “inhibition of insulin concentration” value with serum insulin was “no significant inhibition”.
Turning to `C[C@H](N)C(=O)N[C@H](C)C(=O)N[C@H]1CSSC[C@@H](C(=O)O)NC(=O)[C@H](CO)NC(=O)[C@H]([C@@H](C)O)NC(=O)[C@@H](Cc2ccccc2)NC(=O)[C@H]([C@@H](C)O)NC(=O)[C@H](CCCCN)NC(=O)[C@@H](Cc2c[nH]c3ccccc23)NC(=O)[C@H](Cc2ccccc2)NC(=O)[C@H](Cc2ccccc2)NC(=O)[C@H](C)NC(=O)[C@H](CCCCN)NC1=O` [Example 14, L-Alanyl-D-alanyl-L-cysteinyl-L-lysyl-L-alanyl-L-phenylalanyl-L-phenylalanyl-D-tryptophyl-L-lysyl-L-threonyl-D-phenylalanyl-L-threonyl-L-seryl-L-cysteine cyclic (3->14) disulfide] (H-A[dA]CKAFF[dW]KT[dF]TSC-OH; disulfide 3-14), the results for the Serum Growth Hormone Conc. Mean ± SEM in assay [1] (setting [2]) and in assay [1] (setting [3]) were 132 ± 69.4 ng/mL and 77.8 ± 19.6 ng/mL, respectively. Moreover, the entries for the “% Inhibition of GH release” value in assay [1] (Dose (mg/kg) 2) and in assay [1] (Dose (mg/kg) 50) were 20% and 53%, respectively. In addition, in the assay on serum glucagon, the “inhibition of glucagon concentration” value is recorded as “no significant inhibition”. The “inhibition of insulin concentration” value in the assay with serum insulin is “no significant inhibition”.
As for `C[C@H](N)C(=O)NCC(=O)N[C@H]1CSSC[C@@H](C(=O)O)NC(=O)[C@H](CO)NC(=O)[C@H]([C@@H](C)O)NC(=O)[C@H](Cc2ccccc2)NC(=O)[C@H]([C@@H](C)O)NC(=O)[C@H](CCCCN)NC(=O)[C@H](Cc2c[nH]c3ccccc23)NC(=O)[C@H](Cc2ccccc2)NC(=O)[C@H](Cc2ccccc2)NC(=O)[C@H](CC(N)=O)NC(=O)[C@H](CCCCN)NC1=O` [Somatostatin], the “% Inhibition of GH release” value was 0% in assay [1] (Dose (mg/kg) 2); 86.6% and 84.9% and 89.7% and 93% in assay [1] (Dose (mg/kg) 50). Besides, the “effect on the increase in glucagon concentration induced by L-alanine” value in the assay on serum glucagon (setting [4]) is “inhibits the increase”. For the same compound, the “effect on basal serum concentration of glucagon” value with serum glucagon (setting [5]) is “decrease”. Besides, the “effect on the increase in insulin concentration induced by L-alanine” value in the assay on serum insulin (setting [4]) is reported as “inhibits the increase”. In the assay with serum insulin (setting [5]), the “effect on basal serum concentration of insulin” value was “decrease”.
